Legend:
FabC4 antibody fragment = test: ELISA of synthetic peptides for binding to FabC4; conditions: 2.5 μg/well peptide, FabC4 1 ug, 492 nm
Experimental: Clones A5, A7, C4 and D6, which were able to discriminate the serum of individuals with BC from BBD and NC by Phage-ELISA, were chemically synthesized by GenScript USA Inc. To increase immunogenicity, the peptides were coupled to BSA. Enzyme immunoassays were conducted to assess the ability of FabC4 antibody to recognize these peptides.
(§1) A microtiter plate was sensitized with 2.5 μg/well of each of the peptides diluted in carbonate/bicarbonate buffer (50 mM pH 9.6) and kept for 16 hours at 4° C. After blocking with PBS1X-BSA3% (1 hour at 37° C.) a single wash with PBS1X preceded the addition of FabC4 (1 ug), incubated for 1 hour at 37° C. After washing with PBS1X, anti-HA antibody which was labeled with peroxidase (Roche Applied Science) diluted 1:5000 in PBS-BSA3% for 1 h at 37° C. was added. After washing with PBS1X, the reaction with the OPD SigmaFast® (Sigma-Aldrich) substrate, interrupted with H2SO4 (2N), was analyzed in a spectrophotometer at a length of 492 nm (TP-Reader ThermoPlate).

[1] = system: serum from 150 patients (BC, BBD, NC); test: ELISA of synthetic peptides against serum of 150 patients (diagnostic ability); format: binding, human; conditions: serum from 150 patients (50 from each study group)
Experimental: as §1
The same conditions were used to analyze the diagnostic capacity of the peptides against the serum of the 150 patients previously described. Again, ANOVA and Mann Whitney tests were used for comparative purposes between groups with the aid of the GraphPad Prism 7.0 (GraphPad Software Inc.—La Jolla, Calif., USA) software. Values of P<0.05 were considered significant.

| Sequence | absorbance, binding to FabC4 by ELISA (FabC4 antibody fragment) | reactivity between the samples [1] |
| --- | --- | --- |
| VMPAAKYSLRVL (listed as Homo sapiens) [pC4, chemically synthesized peptide expressed in phage C4] | highest absorbance |  |
| VTPCSSFSSFLP (listed as Homo sapiens) [pD6, chemically synthesized peptide of clone D6] |  | differential reactivity between the samples |

Reference: patent US20230131559A1, “RECOMBINANT PEPTIDES THAT BIND TO A TUMOUR-SPECIFIC ANTIBODY FOR BREAST CANCER AND USE” (Universidade Federal de Uberlândia, priority 2019, published 2023)
